Measured values published in patent US8859491B2 (priority 2011, dated 2014).
Non-standard residues stand in square brackets, D forms with d. No end group written: not given here. Aib = CC(C)(N)C(=O)O

Assays:
glucocorticoid receptor = biological target: T1, glucocorticoid receptor (Homo sapiens, UniProt P04150); assay: EC50
T1 construct: two clones of HeLa cells (ATCC #CCL-2) transfected with murine mammary tumor virus long terminal repeat-driven firefly luciferase; host or cells: HeLa

[1] = Example 14: DIO mice, daily sc dosing; assay type: in vivo
Experimental: Diet-induced obesity (DIO) mice (N=8, 6 mice per group, average initial body weight=58 g) were subcutaneously injected once per day for four weeks with vehicle or 4, 40, or 400 μg/kg of one of the following:
A saline solution comprising 25% (v/v) glucose was injected at a dose of 1.5 g/kg of body weight at the 0 min time point on days 7 and 21. Blood glucose was measured at the 0, 15, 30, 60, and 120 min time points on day 7 and day 21 (FIG. 3a).
Body weight was measured after 23 days and the change in body weight, change in fat mass, and change in lean muscle mass were determined (FIGS. 3b-d).

[2] = Example 13: db/db mice, daily sc dosing; assay type: in vivo
Experimental: Mice (db/db, N=6, average initial body weight=54 g) were subcutaneously injected once per day for four weeks with vehicle or 40 or 400 μg/kg of one of the following:
Body weight was measured after 23 days and the change in body weight was determined (FIG. 2a).

[3] = Administration of GLP-1 conjugates to diet induced obese mice (FIGS. 3-10, 12); assay type: in vivo
[4] = high dose (400 μg/kg-day), after 23 days
[5] = high dose, between days 0 and 14

T1 sequence (P04150 whole entry, looked up): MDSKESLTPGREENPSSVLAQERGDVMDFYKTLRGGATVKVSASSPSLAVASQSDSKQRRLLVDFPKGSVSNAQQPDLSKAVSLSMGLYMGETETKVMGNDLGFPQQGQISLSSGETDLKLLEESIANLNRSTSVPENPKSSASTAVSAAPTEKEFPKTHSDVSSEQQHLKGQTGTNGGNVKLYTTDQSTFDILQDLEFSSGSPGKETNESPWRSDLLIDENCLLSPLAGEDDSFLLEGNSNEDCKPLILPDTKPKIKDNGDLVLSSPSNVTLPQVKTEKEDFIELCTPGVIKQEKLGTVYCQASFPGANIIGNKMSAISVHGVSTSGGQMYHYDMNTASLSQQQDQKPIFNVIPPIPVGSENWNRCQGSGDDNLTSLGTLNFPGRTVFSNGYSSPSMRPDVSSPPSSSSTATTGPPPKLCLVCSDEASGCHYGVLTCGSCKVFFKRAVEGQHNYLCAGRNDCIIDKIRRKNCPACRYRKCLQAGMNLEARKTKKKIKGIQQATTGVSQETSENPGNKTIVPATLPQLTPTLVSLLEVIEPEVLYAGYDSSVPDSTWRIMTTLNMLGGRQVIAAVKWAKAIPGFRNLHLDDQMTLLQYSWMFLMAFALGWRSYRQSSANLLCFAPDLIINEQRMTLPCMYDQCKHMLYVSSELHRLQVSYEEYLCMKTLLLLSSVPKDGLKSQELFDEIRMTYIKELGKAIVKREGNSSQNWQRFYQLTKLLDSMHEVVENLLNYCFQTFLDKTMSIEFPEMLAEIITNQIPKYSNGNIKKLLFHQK

Question: Which EC50 (glucocorticoid receptor) does the source give for `CC[C@H](C)[C@H](NC(=O)[C@H](Cc1ccccc1)NC(=O)[C@H](CCC(=O)O)NC(=O)[C@H](CCCCN)NC(=O)[C@H](C)NC(=O)[C@H](C)NC(=O)[C@H](CCC(N)=O)NC(=O)[C@H](CCC(=O)O)NC(=O)[C@H](CCC(=O)O)NC(=O)[C@H](CC(C)C)NC(=O)[C@H](Cc1ccc(O)cc1)NC(=O)[C@H](CO)NC(=O)[C@H](CO)NC(=O)[C@@H](NC(=O)[C@H](CC(=O)O)NC(=O)[C@H](CO)NC(=O)[C@@H](NC(=O)[C@H](Cc1ccccc1)NC(=O)[C@@H](NC(=O)CNC(=O)[C@H](CCC(=O)O)NC(=O)C(C)(C)NC(=O)[C@@H](N)Cc1c[nH]cn1)[C@@H](C)O)[C@@H](C)O)C(C)C)C(=O)N[C@@H](C)C(=O)N[C@@H](Cc1c[nH]c2ccccc12)C(=O)N[C@@H](CC(C)C)C(=O)N[C@H](C(=O)N[C@@H](CCCCN)C(=O)NCC(=O)NCC(=O)N1CCC[C@H]1C(=O)N[C@@H](CO)C(=O)N[C@@H](CO)C(=O)NCC(=O)N[C@@H](C)C(=O)N1CCC[C@H]1C(=O)N1CCC[C@H]1C(=O)N1CCC[C@H]1C(=O)N[C@@H](CO)C(=O)NC(C(N)=O)C(C)(C)SSCCNC(=O)OCC(=O)[C@@]1(O)[C@H](C)C[C@H]2[C@@H]3CCC4=CC(=O)C=C[C@]4(C)[C@@]3(F)[C@@H](O)C[C@@]21C)C(C)C` (stereo partly shown) [[Aib2, E16]GLP-1-CEX-Pen40(S—SCH2CH2NHCO—O-DEX)] here?
Answer: The EC50 was 73.3 µM.

Question: Which “change in body weight” value [1, 4] does the source give for “GLP-1(Aib^2A^22CexK^40)/Estrogen(17-ester): A22 GLP-1 analog conjugated to estrogen by 17-ester (H[Aib]EGTFTSDVSSYLEGQAAKEAIAWLVKGGPSSGAPPPSK-NH2; not fully specified (residue 40))” here?
Answer: The value was “greatest decrease in body weight”.

Question: What about the cumulative food intake ([1]; high dose, 23 days) of the same compound?
Answer: Its cumulative food intake is “consumed the least amount of food”.

Question: And the “change in fat mass” value ([1]; high dose, after 23 days)?
Answer: The value was “greatest decrease in body weight and fat mass”.

Question: What about the “change in lean muscle mass” value ([1]; high dose, after 23 days) of the same compound?
Answer: Its value is “least amount of lean muscle mass loss”.

Question: What about the change blood glucose [1, 5] of the same compound?
Answer: Its change blood glucose is “greatest decrease in blood glucose levels”.

Question: What about the “change in body weight” value [2, 4] of the same compound?
Answer: The value was “greater decrease in body weight then mice that were administered GLP-1 alone”.

Question: What about the cumulative food intake ([2]; high dose, 23 days) of the same compound?
Answer: The cumulative food intake was “consumed less food than those that were administered GLP-1 alone”.

Question: What about the blood glucose levels [2, 5] of the same compound?
Answer: Its blood glucose levels is “greatest decrease in blood glucose levels”.

Question: For “GLP-1(Aib^2E^16Cex K^40) (H[Aib]EGTFTSDVSSYLEEQAAKEFIAWLVKGGPSSGAPPPSK-NH2) [SEQ ID NO: 1647]”, which “change in blood glucose” value ([3]; FIG. 5b, SEQ ID NO: 1647 at high or low doses, SEQ ID NO: 1651 at high dose) is on record?
Answer: Its value is “greatest change”.

Question: With “GLP-1(Aib^2E^16Cex K^40)/Estrogen(3-ester) (H[Aib]EGTFTSDVSSYLEEQAAKEFIAWLVKGGPSSGAPPPSK-NH2; not fully specified (residue 40)) [SEQ ID NO: 1658]” as the compound, how does the “change in blood glucose levels” value ([3]; between days 0 and 7, FIG. 8b) read?
Answer: The value was “greatest change”.

Question: Which results are given for “d-amino acid containing GLP-1/Estrogen ester conjugate: d-amino acid containing GLP-1/Estrogen conjugate, estrogen covalently linked as ester that was unstable in vivo ([dA][Aib][dE]G[dT][dF][dT][dS][dD][dV][dS][dS][dY][dL][dE]G[dQ][dA][dA][dK][dE][dA][dI][dA][dW][dL][dV][dK]GG[dP][dS][dS]G[dA][dP][dP][dP][dS]K-NH2; not fully specified (residue 40))”?
Answer: total body weight ([3]; FIG. 10a): greatest decrease; change in blood glucose levels ([3]; between days 0 and 7, vs comparable d-amino acid peptide with stable estrogen conjugate, FIG. 10b): greater change
